Source: patent publication US20080260724A1, “Drug Induced Exposure Of The Fungal Pro-Inflammatory Molecule Beta-Glucan” (priority 2005, published 2008)

Legend:
[1] = tested on: wild-type C. albicans (CAF2); test: Viability by propidium iodide staining / microscopic examination; format: cell-based
Procedure: (§1) Fungi were grown overnight in YPD rich medium for yeast-form growth and RPMI 1640 for hyphal growth. C. albicans was grown at 37° C.; S. cerevisiae was grown at 30° C. For CF treatment, overnight cultures of C. albicans CAF2 were diluted 1:1,000 into fresh YPD or RPMI 1640 containing dilutions of CF (caspofungin acetate, Candidas formulation, Merck, Whitehouse Station, N.J., United States) and grown overnight. […] For viability, cells were stained with propidium iodide (Sigma, St. Louis, Mo., United States).
Cultures grown at one-quarter and one-eighth of the CF MIC50 (minimal inhibitory concentration to inhibit 50% of the organisms) were stained with anti-β-glucan antibody and Cy3-labeled secondary antibody (FIGS. 2A and D) for visualization by microscopy or with PE-labeled secondary antibody (FIG. 2B) for FACS quantification. […] Concurrently, cells were labeled briefly with propidium iodide to assess viability and visualized by epifluorescence microscopy or quantified by FACS (FIG. 2C). Cells grown overnight in YPD with or without CF were UV-inactivated and then exposed to BMDMs at a yeast:macrophage ratio of 10:1. Supernatants were taken at 6 h and assayed for TNFα (FIG. 2E).

C. albicans CAF2 = test: Growth inhibition of C. albicans by caspofungin (MIC50); format: cell-based; details: C. albicans CAF2 grown overnight in dilutions of CF
Procedure: as §1

[2] = tested on: wild-type C. albicans (CAF2); test: β-glucan exposure: anti-β-glucan antibody staining, microscopy and FACS; format: cell-based; details: for Mean fluorescence intensity (MFI), anti-β-glucan staining: FACS with PE-labeled secondary antibody
Procedure: as §1
Fungi were grown overnight, washed, blocked in PBS+2% BSA, and stained with either the anti-β-glucan antibody (followed by Cy3- or PE-labeled secondary antibody), Alexa Fluor-labeled Dectin-CRD, or Dectin-CRD-anti-Myc. Staining with antibody and Dectin-CRD is described above for the screen. For staining with Dectin-CRD-anti-Myc, Dectin-CRD was preincubated with FITC-labeled anti-Myc (Invitrogen) at a ratio of 3.4 μg of Dectin-CRD+10 μl of anti-Myc, and then added to fungi at 1:100 on ice. Preincubation of Dectin-CRD with anti-Myc creates a probe with the same approximate size as the anti-β-glucan antibody but with the specificity of Dectin-1. Images of stained cells were taken using a Nikon TE2000-S microscope (Nikon, Tokyo, Japan) equipped with Spot RT camera (Diagnostic Instruments, Sterling Heights, Mich., United States) and processed in Photoshop (Adobe Systems, Palo Alto, Calif., United States). Fluorescence was quantified on a FACScalibur cytometer (Becton-Dickinson, Palo Alto, Calif., United States); cells were gated by forward and side scatter based on wild-type cell size and shape, and mean fluorescence intensity of 20,000 labeled cells was calculated using Cellquest software (Becton-Dickinson).
Cultures grown at one-quarter and one-eighth of the CF MIC50 (minimal inhibitory concentration to inhibit 50% of the organisms) were stained with anti-β-glucan antibody and Cy3-labeled secondary antibody (FIGS. 2A and D) for visualization by microscopy or with PE-labeled secondary antibody (FIG. 2B) for FACS quantification. […]

anti-β-glucan antibody = test: Blocking of anti-β-glucan antibody binding to gas1Δ mutant; details: S. cerevisiae gas1Δ
Procedure: Overnight cultures of strains were grown in YPD and stained with anti-β-glucan primary antibody (Biosupplies Inc., Parkville, Australia) and Cy3-labeled goat-anti-mouse secondary. […] Stained cells were adhered to clear-bottom plates with concanavalin A (Sigma) and scanned with Cellomics VTI fluorescence microscopic imager (Cellomics, Pittsburgh, Pa., United States) using Target Acquisition software (Zeiss, Oberkochen, Germany). Mean average intensity and standard deviation of average intensity measurements were used to identify strains with over two standard deviations greater β-glucan exposure. Initially matA mutant strains were screened, then the independently constructed matα counterparts were screened. […]
Fungi were grown overnight, washed, blocked in PBS+2% BSA, and stained with either the anti-β-glucan antibody (followed by Cy3- or PE-labeled secondary antibody), Alexa Fluor-labeled Dectin-CRD, or Dectin-CRD-anti-Myc. […] Fluorescence was quantified on a FACScalibur cytometer (Becton-Dickinson, Palo Alto, Calif., United States); cells were gated by forward and side scatter based on wild-type cell size and shape, and mean fluorescence intensity of 20,000 labeled cells was calculated using Cellquest software (Becton-Dickinson).

β-glucan receptor = test: Laminarin preincubation of BMDMs (β-glucan receptor blocking), cytokine ELISA; format: cell-based, BL/6 mice
Procedure: RAW264.7 macrophages (ATCC, Manassas, Va., United States) were cultured in RPMI-10 (RPMI 1640 with 10% heat-inactivated fetal bovine serum and standard concentrations of penicillin-streptomycin; GIBCO, San Diego, Calif., United States). Cells were collected and plated in 24-well plates at 5×10^5 cells/well. Bone marrow derived macro-phages (BMDMs) were differentiated as described (Brown G D, et al., (2003), J Exp Med 197:1119). Briefly, bone marrow from BL/6 mice was cultured in RPMI-10 with 15% L-cell conditioned media and 25 ng/ml recombinant M-CSF (R&D Systems, Minneapolis, Minn., United States). Cells were collected after 6 d and plated in 24-well plates at 5×10^5 cells/well.
Fungi were grown overnight, washed extensively to remove any shed proteins or polysaccharides, and normalized by OD600 or hemacytometer (these two methods produced equivalent results). For S. cerevisiae, live fungi were added to RAW264.7 macrophages at equivalent effector:target (E:T) ratio of 1:5 in 24-well plates and incubated for 6 h, when supernatants were collected for ELISA. […]
In FIG. 1A, C. albicans strains were exposed to RAW264.7 macrophages at a ratio of 2:1 (yeast:macrophage), and supernatants were collected after 6 h. […] After unbound fungi were washed off, macrophages were incubated for 6 h at 37° C., and supernatants were collected for TNFα quantitation.

caspofungin acetate [CF]
viability of fungi ([1]; sub-inhibitory CF concentrations, YPD, propidium iodide): without loss of viability | cell death of hyphae ([1]; subinhibitory CF, RPMI 1640, microscopic examination): did not show increased cell death | MIC50 (C. albicans CAF2): 2.5 ng/mL | Mean fluorescence intensity (MFI), anti-β-glucan staining ([2]; one-eighth the CF MIC50, YPD): 65 | Mean fluorescence intensity (MFI), anti-β-glucan staining ([2]; one-quarter the CF MIC50, YPD): 161 | exposure of β-glucan on hyphae ([2]; subinhibitory doses of CF, RPMI 1640 (hyphal growth)): dramatic increase

laminarin
binding of anti-β-glucan antibody to gas1Δ mutant in presence of soluble β-glucan (anti-β-glucan antibody): blocked | increased elicitation of pro-inflammatory cytokines by unmasked C. albicans mutants after laminarin preincubation (β-glucan receptor; BMDMs preincubated 20 min on ice, yeast:macrophage 10:1, 6 h): great majority of the increased elicitation of pro-inflammatory cytokines could be blocked | stimulation of macrophages by laminarin alone (β-glucan receptor; BMDMs, 100 μg/ml laminarin, no fungi, TNFα): does not stimulate
